Results taken from patent publication US8741897B2, “Glucocorticoid mimetics, methods of making them, pharmaceutical compositions and uses thereof” (Boehringer Ingelheim Pharmaceuticals Inc., priority 2003, dated 2014).

What was measured:
[1] = tested on: glucocorticoid receptor function; experiment: one or more of the above assays (GR binding and glucocorticoid receptor cell assays: aromatase, IL-6, TAT, MMTV-Luc, IL-8, ICAM-Luc); type: cell-based; conditions: assay not specified per compound
[2] = target: T1, human glucocorticoid receptor (GR) complex (Homo sapiens, UniProt P04150); experiment: Glucocorticoid receptor competitive binding assay (fluorescence polarization, TAMRA-labeled dexamethasone probe); conditions: compounds of Formula (IA)
T1 construct: made in house; host or cells: insect expression system (baculovirus lysate)
T1 sequence (P04150 1-777): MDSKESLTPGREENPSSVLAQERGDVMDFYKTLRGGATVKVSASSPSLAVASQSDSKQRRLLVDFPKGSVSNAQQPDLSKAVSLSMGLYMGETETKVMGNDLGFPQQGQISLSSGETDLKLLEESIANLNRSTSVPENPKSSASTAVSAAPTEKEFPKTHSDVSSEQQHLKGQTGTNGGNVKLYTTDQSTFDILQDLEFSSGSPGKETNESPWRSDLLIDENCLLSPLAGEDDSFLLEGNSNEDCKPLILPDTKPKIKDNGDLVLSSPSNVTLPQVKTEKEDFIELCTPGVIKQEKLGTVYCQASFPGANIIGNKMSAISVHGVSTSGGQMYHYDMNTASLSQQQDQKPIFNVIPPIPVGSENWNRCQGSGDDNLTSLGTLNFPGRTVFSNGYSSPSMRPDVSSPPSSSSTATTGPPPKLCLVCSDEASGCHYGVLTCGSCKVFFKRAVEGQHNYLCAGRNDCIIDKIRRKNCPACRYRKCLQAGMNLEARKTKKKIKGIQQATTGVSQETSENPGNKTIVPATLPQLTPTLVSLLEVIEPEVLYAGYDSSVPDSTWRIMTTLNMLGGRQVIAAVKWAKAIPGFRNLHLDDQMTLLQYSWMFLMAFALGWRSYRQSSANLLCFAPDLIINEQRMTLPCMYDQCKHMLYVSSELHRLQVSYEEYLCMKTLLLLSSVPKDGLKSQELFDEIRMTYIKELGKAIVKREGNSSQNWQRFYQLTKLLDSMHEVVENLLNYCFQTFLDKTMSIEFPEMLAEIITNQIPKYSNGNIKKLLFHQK
How it was run: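 Fluorescence-polarization competition against 15 nM TAMRA-dexamethasone (stock added to the mix) for human GR complex from baculovirus lysate diluted 1:170. Buffer: 10 mM TES, 50 mM KCl, 20 mM Na2MoO4, 1.5 mM EDTA, 0.04% CHAPS, 10% glycerol, 1 mM DTT, pH 7.4. IC50 from 4-parameter logistic fit.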

| activity in the GR binding assay [2] | Compound | activity as agonists of the glucocorticoid receptor function in one or more of the above assays [1] |
| --- | --- | --- |
| potent activity | Cc1c(CC(O)(CC(C)(C)c2cc(Cl)cc3c2OCC3)C(F)(F)F)[nH]c2cnccc12 (stereo not shown) [4-(5-Chloro-2,3-dihydrobenzofuran-7-yl)-1,1,1-trifluoro-4-methyl-2-(3-methyl-1H-pyrrolo[2,3-c]pyridin-2-ylmethyl)pentan-2-ol] | potent agonists |
| potent activity | Cc1cc(C#N)cc2[nH]c(CC(O)(CC(C)(C)c3cc(Br)cc4c3OCC4)C(F)(F)F)cc12 (stereo not shown) [2-[4-(5-Bromo-2,3-dihydrobenzofuran-7-yl)-2-hydroxy-4-methyl-2-trifluoromethylpentyl]-4-methyl-1H-indole-6-carbonitrile] | potent agonists |
| potent activity | Cc1cc(CC(O)(CC(C)(C)c2ccc(F)cc2O)C(F)(F)F)cc(C)n1 (stereo not shown) [2-[3-(2,6-Dimethylpyridin-4-ylmethyl)-4,4,4-trifluoro-3-hydroxy-1,1-dimethylbutyl]-5-fluorophenol] | potent agonists |
| potent activity | COc1ccc(F)cc1C(C)(C)CC(O)(Cc1cc2cc(C(N)=O)ccc2[nH]1)C(F)(F)F (stereo not shown) [2-[4-(5-Fluoro-2-methoxyphenyl)-2-hydroxy-4-methyl-2-trifluoromethylpentyl]-1H-indole-5-carboxylic acid amide] | potent agonists |
| potent activity | COc1ccc(S(C)(=O)=O)cc1C(C)(C)CC(O)(Cc1[nH]c2ccccc2c1C#N)C(F)(F)F (stereo not shown) [2-[2-Hydroxy-4-(5-methanesulfonyl-2-methoxyphenyl)-4-methyl-2-trifluoromethylpentyl]-1H-indole-3-carbonitrile] | potent agonists |
| potent activity | CC(C)(CC(O)(Cc1ccnc2ccccc12)C(F)(F)F)c1cc(C#N)cc2c1OCC2 (stereo not shown) [7-(4,4,4-Trifluoro-3-hydroxy-1,1-dimethyl-3-quinolin-4-ylmethylbutyl)-2,3-dihydrobenzofuran-5-carbonitrile] | potent agonists |
| potent activity | CC(C)(CC(O)(Cc1cc2cnccc2[nH]1)C(F)(F)F)c1cc(Cl)cc2c1OCC2 (stereo not shown) [4-(5-Chloro-2,3-dihydrobenzofuran-7-yl)-1,1,1-trifluoro-4-methyl-2-(1H-pyrrolo[3,2-c]pyridin-2-ylmethyl)pentan-2-ol] | potent agonists |
| potent activity | COc1ccc(F)cc1C(C)(C)CC(O)(Cc1cc2cc(C#N)ncc2[nH]1)C(F)(F)F (stereo not shown) [2-[4-(5-Fluoro-2-methoxyphenyl)-2-hydroxy-4-methyl-2-trifluoromethylpentyl]-1H-pyrrolo[2,3-c]pyridine-5-carbonitrile] | potent agonists |
| potent activity | CC(C)(CC(O)(Cc1cc2ccccc2[nH]1)C(F)(F)F)c1cccc(Br)c1 (stereo not shown) [4-(3-Bromophenyl)-1,1,1-trifluoro-2-(1H-indol-2-ylmethyl)-4-methylpentan-2-ol] | potent agonists |
| potent activity | CC(C)(CC(O)(Cc1cc2ncncc2[nH]1)C(F)(F)F)c1cc(Cl)cc2c1OCC2 (stereo not shown) [4-(5-Chloro-2,3-dihydrobenzofuran-7-yl)-1,1,1-trifluoro-4-methyl-2-(5H-pyrrolo[3,2-d]pyrimidin-6-ylmethyl)pentan-2-ol] | potent agonists |
| potent activity | CC(C)(CC(O)(Cc1cc2cc(C(F)(F)F)ncc2[nH]1)C(F)(F)F)c1cc(Cl)cc2c1OCC2 (stereo not shown) [4-(5-Chloro-2,3-dihydrobenzofuran-7-yl)-1,1,1-trifluoro-4-methyl-2-(5-trifluoromethyl-1H-pyrrolo[2,3-c]pyridin-2-ylmethyl)pentan-2-ol] | potent agonists |
| potent activity | CC(C)(CC(O)(Cc1cc2cc(C(=O)N3CCOCC3)ccc2[nH]1)C(F)(F)F)c1cc(Br)cc2c1OCC2 (stereo not shown) [{2-[4-(5-Bromo-2,3-dihydrobenzofuran-7-yl)-2-hydroxy-4-methyl-2-trifluoromethylpentyl]-1H-indol-5-yl}morpholin-4-ylmethanone] | potent agonists |
| potent activity | CC(C)(CC(O)(Cc1cc2cc(C#N)ccc2[nH]1)C(F)(F)F)c1cccc(C2OCCO2)c1 (stereo not shown) [2-[4-(3-[1,3]Dioxolan-2-ylphenyl)-2-hydroxy-4-methyl-2-trifluoromethylpentyl]-1H-indole-5-carbonitrile] | potent agonists |

Further lines, the molecule ahead of its results:

| Compound | activity in the GR binding assay [2] | activity as agonists of the glucocorticoid receptor function in one or more of the above assays [1] |
| --- | --- | --- |
| COc1ccc(F)cc1C(C)(C)CC(O)(Cc1cc2c(C)cncc2[nH]1)C(F)(F)F (stereo not shown) [1,1,1-Trifluoro-4-(5-fluoro-2-methoxyphenyl)-4-methyl-2-(4-methyl-1H-pyrrolo[2,3-c]pyridin-2-ylmethyl)pentan-2-ol] | potent activity | potent agonists |
| COc1ccc(F)cc1C(C)(C)CC(O)(Cc1cc2c(C)nc(C)cc2[nH]1)C(F)(F)F (stereo not shown) [2-(4,6-Dimethyl-1H-pyrrolo[3,2-c]pyridin-2-ylmethyl)-1,1,1-trifluoro-4-(5-fluoro-2-methoxyphenyl)-4-methylpentan-2-ol] | potent activity | potent agonists |
| Cc1ccc(F)cc1C(C)(C)CC(O)(Cc1cc2ccnc(F)c2[nH]1)C(F)(F)F (stereo not shown) [1,1,1-Trifluoro-4-(5-fluoro-2-methylphenyl)-2-(7-fluoro-1H-pyrrolo[2,3-c]pyridin-2-ylmethyl)-4-methylpentan-2-ol] | potent activity | potent agonists |
| CC(C)(CC(O)(Cc1ccnc2ccccc12)C(F)(F)F)c1ccc(F)cc1 (stereo not shown) [1,1,1-Trifluoro-4-(4-fluorophenyl)-4-methyl-2-quinolin-4-ylmethylpentan-2-ol] | potent activity | potent agonists |
| Cc1ccc(F)cc1C(C)(C)CC(O)(Cn1ccc2ncccc21)C(F)(F)F (stereo not shown) [1,1,1-Trifluoro-4-(5-fluoro-2-methylphenyl)-4-methyl-2-pyrrolo[3,2-b]pyridin-1-ylmethylpentan-2-ol] | potent activity | potent agonists |
| COc1ccc(F)cc1C(C)(C)CC(O)(Cc1cc2ccncc2s1)C(F)(F)F (stereo not shown) [1,1,1 -Trifluoro-4-(5-fluoro-2-methoxyphenyl)-4-methyl-2-thieno[2,3-c]pyridin-2-ylmethylpentan-2-ol] | potent activity | potent agonists |
| Cc1cc(C)c(O)c(C(C)(C)CC(O)(Cc2[nH]c3ccccc3c2C#N)C(F)(F)F)c1 (stereo not shown) [2-[2-Hydroxy-4-(2-hydroxy-3,5-dimethylphenyl)-4-methyl-2-trifluoromethylpentyl]-1H-indole-3-carbonitrile] | potent activity | potent agonists |
| Cc1cc2[nH]c(CC(O)(CC(C)(C)c3cc(F)ccc3C)C(F)(F)F)cc2c(C)n1 (stereo not shown) [2-(4,6-Dimethyl-1H-pyrrolo[3,2-c]pyridin-2-ylmethyl)-1,1,1-trifluoro-4-(5-fluoro-2-methylphenyl)-4-methylpentan-2-ol] | potent activity | potent agonists |
| COc1ccc(C)cc1C(C)(C)CC(O)(Cc1cc2ccccc2[nH]1)C(F)(F)F (stereo not shown) [1,1,1-Trifluoro-2-(1H-indol-2-ylmethyl)-4-(2-methoxy-5-methylphenyl)-4-methylpentan-2-ol] | potent activity | potent agonists |
| Cc1cc(C#N)cc2[nH]c(CC(O)(CC(C)(C)c3cccc4c3OCO4)C(F)(F)F)cc12 (stereo not shown) [2-(4-Benzo[1,3]dioxol-4-yl-2-hydroxy-4-methyl-2-trifluoromethylpentyl)-4-methyl-1H-indole-6-carbonitrile] | potent activity | potent agonists |
